One experiment concerns A549 cells. The experiment is described as follows: A549 proliferation (viability) assay, Cell Titer Fluor, 72 hours. The class given is cell-based. The conditions noted are these: Homo sapiens. The method in brief:
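1000 A549 cells/well, RPMI 1640/10% dialyzed FBS, 24 h attach; compound 72 h, 0.5% DMSO, 37 °C/5% CO2; Cell Titer Fluor fluorescence; EC50 via 4-parameter logistic.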

For experiment [1], the target named is T1, GLS1 (purified recombinant human GAC) (Homo sapiens, UniProt O94925).
T1 sequence (O94925 55-598 isoform O94925-3 limits assumed): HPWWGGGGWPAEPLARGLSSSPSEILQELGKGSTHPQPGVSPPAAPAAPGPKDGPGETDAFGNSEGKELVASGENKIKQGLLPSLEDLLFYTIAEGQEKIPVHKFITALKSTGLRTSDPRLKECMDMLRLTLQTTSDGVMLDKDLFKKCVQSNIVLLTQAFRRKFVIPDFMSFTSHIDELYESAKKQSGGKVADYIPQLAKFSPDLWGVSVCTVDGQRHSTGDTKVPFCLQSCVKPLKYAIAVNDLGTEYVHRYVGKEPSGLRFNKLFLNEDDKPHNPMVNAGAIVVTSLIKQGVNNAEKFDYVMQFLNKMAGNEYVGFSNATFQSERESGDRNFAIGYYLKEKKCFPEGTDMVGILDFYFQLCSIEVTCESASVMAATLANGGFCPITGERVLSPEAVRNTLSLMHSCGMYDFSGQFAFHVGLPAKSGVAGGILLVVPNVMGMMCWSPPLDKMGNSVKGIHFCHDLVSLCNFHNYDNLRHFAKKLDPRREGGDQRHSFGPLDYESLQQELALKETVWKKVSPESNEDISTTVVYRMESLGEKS
Description: GLS1 enzymatic activity assay (dual-coupled, Amplex UltraRed/resorufin). The class given is biochemical. In short, it runs like this:
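Recombinant human GAC (2 nM) preincubated with 50 mM potassium phosphate, then inhibitor (10 min each, RT); 1 mM glutamine, pH 7.4 Hepes buffer, 1% DMSO. Glutamate coupled via glutamate oxidase/HRP to resorufin (Ex 530/Em 590), kinetic or 20-min endpoint; IC50 by four-parameter logistic fit.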

pEC50, pIC50: −log10 of the molar value.

This is an account of results in US20160002204A1 (Board of Regents, The University of Texas System, priority 2014, published 2016).

By pEC50 is commonly meant the negative decadic logarithm of the EC50, by convention in mol/L. Lower therefore signals a large EC50. As usually defined, the pIC50 is the IC50 on a negative log10 scale, so that one unit is a factor of ten.

In the experiment on A549 cells, `O=C(Cc1ccccc1F)Nc1ccn(CCC(F)Cn2cc(C(=O)NCc3ccc(C(F)(F)F)nc3)nn2)c(=O)c1F` (stereo not shown) [Example 371, 1-(2-fluoro-4-{3-fluoro-4-[2-(2-fluorophenyl)acetamido]-2-oxo-1,2-dihydropyridin-1-yl}butyl)-N-{[6-(trifluoromethyl)pyridin-3-yl]methyl}-1H-1,2,3-triazole-4-carboxamide] had a negative-log EC50 (pEC50) of 6.30 to 7.00. In addition, the negative-log IC50 (pIC50) in experiment [1] was greater than 7.00.

`Cc1ccc(CNC(=O)c2cn(CC(F)CCn3ccc(NC(=O)Cc4ccccc4)c(F)c3=O)nn2)cn1` (stereo not shown) [Example 307, 1-{2-fluoro-4-[3-fluoro-2-oxo-4-(2-phenylacetamido)-1,2-dihydropyridin-1-yl]butyl}-N-[(6-methylpyridin-3-yl)methyl]-1H-1,2,3-triazole-4-carboxamide] gave a negative logarithm of the EC50 (pEC50) in the experiment on A549 cells of 6.30 to 7.00. Moreover, the pIC50 in experiment [1] is greater than 7.00.

Regarding `O=C(Cc1ccccn1)Nc1ccn(CCC(F)Cn2cc(C(=O)NCc3cc(OC(F)(F)F)ccc3F)nn2)c(=O)c1` (stereo not shown) [Example 182, 1-(2-fluoro-4-{2-oxo-4-[2-(pyridin-2-yl)acetamido]-1,2-dihydropyridin-1-yl}butyl)-N-{[2-fluoro-5-(trifluoromethoxy)phenyl]methyl}-1H-1,2,3-triazole-4-carboxamide], the pEC50 in the experiment with A549 cells is 6.30 to 7.00. The negative logarithm of the IC50 (pIC50) in experiment [1] is greater than 7.00.

With `O=C(CC1CCCC1)Nc1ccn(CCC(F)Cn2cc(C(=O)NCc3ncccc3F)nn2)c(=O)c1F` (stereo not shown) [Example 387, 1-{4-[4-(2-cyclopentylacetamido)-3-fluoro-2-oxo-1,2-dihydropyridin-1-yl]-2-fluorobutyl}-N-[(3-fluoropyridin-2-yl)methyl]-1H-1,2,3-triazole-4-carboxamide], the pEC50 in the experiment with A549 cells is greater than 7.00. Moreover, in experiment [1], the pIC50 is greater than 7.00.

For `O=C(Nc1ccn(CCCCc2nnc(C(=O)NCc3cc(C(F)(F)F)ccn3)s2)c(=O)c1F)C(=O)N1CCCCC1` [Example 466, 5-(4-{3-fluoro-2-oxo-4-[2-oxo-2-(piperidin-1-yl)acetamido]-1,2-dihydropyridin-1-yl)butyl)-N-{[4-(trifluoromethyl)pyridin-2-yl]methyl}-1,3,4-thiadiazole-2-carboxamide], the negative-log EC50 (pEC50) with A549 cells was 6.30 to 7.00. Further, in experiment [1], the pIC50 is greater than 7.00.
